Reference: patent US5464865A, “4-aryl- and 4-arylthio-5-hydroxy-2(5H)-furanones as inhibitors of phospholipase A2” (Ortho Pharmaceutical Corporation, priority 1993, dated 1995)

Legend:
[1] = biological target: T1, human platelet phospholipase A2 (Homo sapiens, UniProt P14555); experiment: Inhibition of human platelet phospholipase A2 (14C-oleate E. coli substrate); assay type: biochemical; conditions: for IC50: pH 7.0, 37°, 60 min incubation, read-out: Inhibition of PLA2, IC50; for inhibition at 50 µM: read-out: Inhibition of PLA2, % Inhibition @ 50 μM
T1 construct: a preparation of human platelet phospholipase A2; from tissue; host or cells: human platelets
T1 sequence (P14555 21-144): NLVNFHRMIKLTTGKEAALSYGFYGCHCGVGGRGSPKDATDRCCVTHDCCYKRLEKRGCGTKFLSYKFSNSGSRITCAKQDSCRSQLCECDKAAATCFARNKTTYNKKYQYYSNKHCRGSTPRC
Method: The activity of the compounds of the invention against phospholipase A2 is determined using a preparation of human platelet phospholipase A2 with a specific activity of 180 nmol/min/mg as the enzyme source. Polypropylene 15-ml test tubes are utilized as the reaction vessels. All drug samples are run in duplicate, with "blank" and "control" (no test compound) groups run in triplicate. […] Test compounds are dissolved in DMSO, and diluted to a projected final concentration of either 50 or 10 μM in 550 μl HEPES buffer at pH 7.0. A 1:7 dilution of human platelet PLA2 in HEPES buffer (5 μl) is added to each test tube, followed by gentle vortexing for 3 seconds. The reaction tubes containing drug, buffer, and enzyme are preincubated for 15 min at 37°, followed by the addition of 25 μl of ^14 C-oleate E. coli substrate. Details regarding this substrate may be found in a publication by S. Ghosh and R. Franson, Biochem. Cell. Biol., 70, 43 (1992), and references therein.
The tubes are immediately vortexed at moderate speed for 3 sec, followed by a 60 min incubation at 37° in a shaking water bath. The reaction is stopped by the addition of 3 ml of a 1:2 chloroform-methanol mixture. Additional water (1.5 ml) and chloroform (1.0 ml) are added, followed by vortexing. The lower phase is removed with a polypropylene transfer pipette, and transferred to a 13×100 mm polypropylene test tube. The organic solvent is evaporated with a stream of nitrogen, the residue is redissolved in 30 μl of a 9:1 chloroform-methanol mixture, and the solution is spotted on a channeled polyester-backed silica gel TLC plate, such as those available under the trade name PE SIL G available from Whatman Inc, Clifton, N.J.
The plate is developed with an 80:20:1 mixture of petroleum ether-diethyl ether-acetic acid. […] The plate is scored above the origin, cut along the score with scissors, and the reactant (origin) and product portions of each channel are put into separate scintillation vials. To each vial is added a scintillation cocktail (15 ml), preferably that sold under the trademark ECOLUME by ICN Biomedicals, Irvine Calif. The vials are shaken vigorously for 5 sec, and the radioactive ^14 C in each vial is measured with a scintillation counter, which provides the counts-per-minute (cpm) for each sample. The obtained cpm values are corrected for the "blank" values.
The percentage of phospholipid hydrolyzed is calculated by the formula:
Phospholipid converted=100×cpm products / (cpm products+cpm
The inhibition of phospholipase A2 by the test compounds is expressed as a percent inhibition relative to the control group:
% Inhibition=[…]

[2] = tested on: TPA-induced inflammation in the mouse ear; experiment: Topical anti-inflammatory activity: TPA-induced inflammation (edema) in the mouse ear; assay type: in vivo, mouse (male CD-1); conditions: for inhibition in vivo at 100 µg/ear: Mus musculus, @ 100 μg, 5-6 h after TPA; for Inhibition of ear edema, IC50: multiple-dose experiment, dose for 50% inhibition of weight gain
Method: The topical anti-inflammatory activity of the compounds is determined by measuring the degree of inhibition of TPA-induced inflammation in the mouse ear, using essentially the procedure of C. Van Arman, Clin. Pharmacol. Ther., 16, 900 (1974). Male CD-1 mice are used at seven to nine weeks of age. 12-O-tetradecanoylphorbol acetate ([…] in 20 μl of acetone) is dispensed onto the dorsum of the left ear of each mouse, and the right ear is left untreated. Ten mice so treated serve as the control group. […]
After five to six hours, the animals are sacrificed by CO2 inhalation, the ears are removed, and 7 mm circular punch biopsies of are taken from each ear and weighed. The difference in biopsy weight between treated and untreated ears is determined, and the degree of anti-inflammatory activity is expressed in terms of the percent inhibition of ear weight increase relative to the control group. In multiple-dose experiments, varying amounts of the compound to be tested are applied along with the TPA and the results are expressed as the ED50, the dose at which a 50% inhibition of weight gain is observed.

Compound | IC50 [1] [µM] | inhibition at 50 µM [1] [%] | inhibition in vivo at 100 µg/ear [2] [%] | Inhibition of ear edema, IC50 [2] [µg]
C=CC(CCCCC)Oc1ccc(C2=CC(=O)OC2O)cc1 (stereo not shown) [Example 37, 5-Hydroxy-4-(4-((1-ethenylhexyl)oxy)phenyl)-2(5H)-furanone] | 20 | 93 | 34 | 
C=CCCCCCCCCC(=O)c1ccc(C2=CC(=O)OC2O)cc1 (stereo not shown) [Example 28, 5-Hydroxy-4-(4-(1-oxoundec-10-en-1-yl)phenyl)-2(5H)-furanone] | 9 | 86 | 0 | 
O=C1C=C(c2ccc(C(=O)/C=C/c3ccc4ccccc4c3)cc2)C(O)O1 (stereo not shown) [Example 30, (E)-5-Hydroxy-4-(4-(3-(2-naphthyl)-1-oxo-2-propenyl)phenyl)-2(5H)-furanone] | 7 | 92 | 66 | 80
CCCCCCCCOc1ccc(SC2=CC(=O)OC2O)cc1 (stereo not shown) [Example 64, 5-Hydroxy-4-(4-(octyloxy)phenylthio)-2(5H)-furanone] | 5 | 96 | 48 | 
CCCCCCCCOc1ccc(C2=CC(=O)OC2O)cc1 (stereo not shown) [Example 1, 5-Hydroxy-4-(4-octyloxyphenyl)-2(5H)furanone] | 14 | 91 | 56 | 300
CCCCC/C=C/Cc1cc(C2=CC(=O)OC2O)ccc1O (stereo not shown) [Example 38, (E)-5-Hydroxy-4-(4-hydroxy-3-(2-octenyl)phenyl)-2(5H)-furanone] |  | 85 | 78 | 27
CC1=C(CCCC/C=C(\C)COc2ccc(C3=CC(=O)OC3O)cc2)C(C)(C)CCC1 (stereo not shown) [Example 14, (E)-5-Hydroxy-4-(4-(2-methyl-7-(2,6,6-trimethyl-1-cyclohexen-1-yl)-2-heptenyloxy)phenyl)-2(5H)-furanone] |  | 87 | 4 | 
CC1=C(C/C=C(\C)COc2cccc(C3=CC(=O)OC3O)c2)C(C)(C)CCC1 (stereo not shown) [Example 17, (E)-5-Hydroxy-4-(3-(2-methyl-4-(2,6,6-trimethyl-1-cyclohexen-1-yl)-2-butenyloxy)phenyl)-2(5H)-furanone] | 8 | 100 | 51 | 87
O=C1C=C(c2ccc(OCc3ccc(C#Cc4ccccc4)cc3)cc2)C(O)O1 (stereo not shown) [Example 44, 5-Hydroxy-4-(4-((4-(2-phenylethynyl)phenyl)methoxy)phenyl)-2(5H)-furanone] |  | 90 | 43 | 
O=C1C=C(c2ccc(/C=C/CCc3ccccc3)cc2)C(O)O1 (stereo not shown) [Example 36, (E)-5-Hydroxy-4-(4-(4-phenyl-1-butenyl)phenyl)-2(5H)-furanone] | 24 | 84 | 37 | 
CC1=C(CCCCCCCOc2ccc(C3=CC(=O)OC3O)cc2)C(C)(C)CCC1 (stereo not shown) [Example 27, 5-Hydroxy-4-(4-(7-(2,6,6-trimethyl-1-cyclohexen-1-30 yl)heptyloxy)phenyl)-2(5H)-furanone] | 1.4 | 67 | 35 | 
O=C1C=C(c2ccc(C#Cc3ccccc3)cc2)C(O)O1 (stereo not shown) [Example 55, 5-Hydroxy-4-(4-(2-phenylethynyl)phenyl)-2(5H)-furanone] | 19 | 67 | 79 | 37
CC1=C(CC/C=C(\C)COc2ccc(C3=CC(=O)OC3O)cc2)C(C)(C)CCC1 (stereo not shown) [Example 15, (E)-5-Hydroxy-4-(4-(2-methyl-5-(2,6,6-trimethyl-1-cyclohexen-1-yl)-2-pentenyloxy)phenyl)-2(5H)-furanone] |  | 94 | 49 | 
O=C1C=C(c2ccc(OCCOc3ccc4ccccc4c3)cc2)C(O)O1 (stereo not shown) [Example 12, 5-Hydroxy-4-[4-(2-(2-naphthyloxy)ethoxy)phenyl]-2(5H)furanone] |  | 47 | 45 | 
CCCCC/C=C\C/C=C\CCCCCCCCOc1cccc(C2=CC(=O)OC2O)c1 (stereo not shown) [Example 40, (Z,Z)-5-Hydroxy-4-((3-(octadeca-9,12-dienyl)oxy)phenyl)-2(5H)-furanone] | 7 | 100 | 80 | 
CC1=C(C/C=C(\C)CSc2ccc(C3=CC(=O)OC3O)cc2)C(C)(C)CCC1 (stereo not shown) [Example 18, (E)-5-Hydroxy-4-(4-(2-methyl-4-(2,6,6-trimethyl-1-cyclohexen-1-yl)-2-butenylthio)phenyl)-2(5H)-furanone] |  | 75 | 70 | 28
O=C1C=C(c2ccc(/C=C/c3ccccc3)cc2)C(O)O1 (single isomer, unassigned) [Example 34, (E)-5-Hydroxy-4-(4-(2-phenylethenyl)phenyl)-2(5H)-furanone] | 30 | 91 | 33 | 
CC1=C(C/C=C(\C)COc2ccc(C3=CC(=O)OC3O)cc2)C(C)(C)CCC1 (stereo not shown) [Example 16, (E)-5-Hydroxy-4-(4-(2-methyl-4-(2,6,6-trimethyl-1-cyclohexen-1-yl)-2-butenyloxy)phenyl)-2(5H)-furanone] | 9 | 100 | 43 | 106
CC1=C(CCC(C)Oc2ccc(C3=CC(=O)OC3O)cc2)C(C)(C)CCC1 (stereo not shown) [Example 39, (E)-5-Hydroxy-4-(4-((1-methyl-3-(2,6,6-trimethyl-1-cyclohexen-1-yl)propyl)oxy)phenyl)-2(5H)-furanone] | 20 | 95 | 48 | 94
CCCCCCCCSc1ccc(C2=CC(=O)OC2O)cc1 (stereo not shown) [Example 19, 5-Hydroxy-4-(4-(octylthio)phenyl)-2(5H)furanone] | 5 | 98 | 20 | 
O=C1C=C(c2ccc(OCCCCCCOc3ccc4ccccc4c3)cc2)C(O)O1 (stereo not shown) [Example 13, 5-Hydroxy-4-[4-(6-(2-naphthyloxy)hexyloxy)phenyl]-2(5H)furanone] | 22 | 73 | 0 | 
C=CCc1ccc(C2=CC(=O)OC2O)cc1O (stereo not shown) [Example 41, 5-Hydroxy-4-(3-hydroxy-4-(2-propenyl)phenyl)-2(5H)-furanone] |  | 0 | 64 | 
COc1ccc(CCNC(=O)c2ccc(C3=CC(=O)OC3O)cc2)cc1OC (stereo not shown) [Example 48, 5-Hydroxy-4-(4-((2-(3,4-dimethoxyphenyl)ethyl)aminocarbonyl)phenyl)-2(5H)-furanone] |  | 0 |  | 
O=C1C=C(c2ccc(OS(=O)(=O)C(F)(F)F)cc2)C(O)O1 (stereo not shown) [Example 46, 5-Hydroxy-4-(4-(trifluoromethanesulfonoxy)phenyl)-2(5H)-furanone] |  | 0 |  | 
O=C1C=C(c2ccc(/C=C\c3ccccc3)cc2)C(O)O1 (single isomer, unassigned) [Example 33, (Z)-5-Hydroxy-4-(4-(2-phenylethenyl)phenyl)-2(5H)-furanone] |  | 23 |  | 
